Reference: US20040215021A1, “Stable lansoprazole containing more than 500 ppm, up to about 3,000 ppm water and more than 200 ppm, up to about 5,000 ppm alcohol” (priority 2002, published 2004)
Where two headings read alike, the source gives them in different places.

Legend:
[1] = Stability of stabilized vs. non-stabilized 'solvent-free' lansoprazole (HPLC impurities, color); assay type: physicochemical; conditions: 3 months, 40° C., 75% humidity
From the text: (§1) Chromatographic purity method of lansoprazole is detailed in the monograph in USP Forum Vol.26(5) [September-October 2000].

[2] = Stability of lansoprazole under different storage conditions (HPLC impurities); assay type: physicochemical
From the text: The obtained lansoprazole is stable.
as §1

[3] = cited from earlier work

Cc1c(OCC(F)(F)F)ccnc1C[S+]([O-])c1nc2ccccc2[nH]1 (centres unmarked) [Lansoprazole Not Stabilized With Ammonia]
Color [1]: Brownish
LNP-SO2 [1]: 0.04%
LNPS [1]: 0.06%
Total Impurities [1]: 0.31%

Cc1c(OCC(F)(F)F)ccnc1C[S+]([O-])c1nc2ccccc2[nH]1 (centres unmarked) [Lansoprazole Stabilized With Ammonia]
Color [1]: White
LNP-SO2 [1]: 0.02%
LNPS [1]: 0.03%
Total Impurities [1]: 0.08%

Cc1c(OCC(F)(F)F)ccnc1C[S+]([O-])c1nc2ccccc2[nH]1 (centres unmarked) [wet lansoprazole product]
Stability (in words) ([2]; Example 4, wet product before drying, water about 2,200 ppm, ethanol about 300 to about 500 ppm expected): behave similarly to the dry lansoprazole

Cc1c(OCC(F)(F)F)ccnc1C[S+]([O-])c1nc2ccccc2[nH]1 (centres unmarked) [Lansoprazole, 2-[[[3-methyl-4-(2,2,2-trifluoro-ethoxy)-2-pyridinyl]methyl]sulfinyl]-1H-benzimidazole]
LNP-SO2 ([2]; 1 month, 2-8° C.): 0.04%
LNPS ([2]; 1 month, 2-8° C.): 0.01%
Total Impurities ([2]; 1 month, 2-8° C.): 0.05%
LNP-SO2 ([2]; 1 month, 25° C., 60% humidity): 0.04%
LNPS ([2]; 1 month, 25° C., 60% humidity): 0.01%
Total Impurities ([2]; 1 month, 25° C., 60% humidity): 0.09%
LNP-SO2 ([2]; 2 month, 2-8° C.): 0.04%
LNPS ([2]; 2 month, 2-8° C.): 0.01%
Total Impurities ([2]; 2 month, 2-8° C.): 0.05%
LNP-SO2 ([2]; 2 month, 25° C., 60% humidity): 0.04%
LNPS ([2]; 2 month, 25° C., 60% humidity): 0.01%
Total Impurities ([2]; 2 month, 25° C., 60% humidity): 0.08%
LNP-SO2 ([2]; 2 weeks, 25° C., 60% humidity): 0.04%
LNPS ([2]; 2 weeks, 25° C., 60% humidity): <detection limit
Total Impurities ([2]; 2 weeks, 25° C., 60% humidity): 0.04%
LNP-SO2 ([2]; 3 month, 2-8° C.): 0.04%
LNPS ([2]; 3 month, 2-8° C.): <detection limit
Total Impurities ([2]; 3 month, 2-8° C.): 0.04%
LNP-SO2 ([2]; 3 month, 25° C., 60% humidity): 0.04%
LNPS ([2]; 3 month, 25° C., 60% humidity): <detection limit
Total Impurities ([2]; 3 month, 25° C., 60% humidity): 0.1%
LNP-SO2 ([2]; 6 month, 2-8° C.): 0.04%
LNPS ([2]; 6 month, 2-8° C.): <detection limit
Total Impurities ([2]; 6 month, 2-8° C.): 0.04%
LNP-SO2 ([2]; 6 month, 25° C., 60% humidity): 0.04%
LNPS ([2]; 6 month, 25° C., 60% humidity): <detection limit
Total Impurities ([2]; 6 month, 25° C., 60% humidity): 0.12%
LNP-SO2 ([2]; 9 month, 2-8° C.): 0.05%
LNPS ([2]; 9 month, 2-8° C.): <detection limit
Total Impurities ([2]; 9 month, 2-8° C.): 0.05%
LNP-SO2 ([2]; 9 month, 25° C., 60% humidity): 0.05%
LNPS ([2]; 9 month, 25° C., 60% humidity): 0.04%
Total Impurities ([2]; 9 month, 25° C., 60% humidity): 0.18%
LNPS ([2]; 12 month, 2-8° C.): <detection limit
Total Impurities ([2]; 12 month, 2-8° C.): 0.03%
LNP-SO2 ([2]; 12 month, 25° C., 60% humidity): 0.04%
LNPS ([2]; 12 month, 25° C., 60% humidity): 0.07%
Total Impurities ([2]; 12 month, 25° C., 60% humidity): 0.32%
Stability (in words) ([2]; product of Example 2, water 2,200 ppm, alcohol <50 ppm): stable
LNP-SO2 ([2]; time 0): 0.04%
LNPS ([2]; time 0): <detection limit
Total Impurities ([2]; time 0): 0.04%
Color on storage ([3]; 4 months at 40° C. and 75% room humidity): pale brown
Color on storage ([3]; 4 months at 40° C., absence of humidity): pale yellowish brown
